The source of these data is patent US20120116095A1, “GLYCINE TRANSPORTER INHIBITORS” (TAISHO PHARMACEUTICAL C0., LTD., priority 2009, published 2012).

Where only a bound is given, the exact number is not on record here.

T1 sequence (P08183 whole entry): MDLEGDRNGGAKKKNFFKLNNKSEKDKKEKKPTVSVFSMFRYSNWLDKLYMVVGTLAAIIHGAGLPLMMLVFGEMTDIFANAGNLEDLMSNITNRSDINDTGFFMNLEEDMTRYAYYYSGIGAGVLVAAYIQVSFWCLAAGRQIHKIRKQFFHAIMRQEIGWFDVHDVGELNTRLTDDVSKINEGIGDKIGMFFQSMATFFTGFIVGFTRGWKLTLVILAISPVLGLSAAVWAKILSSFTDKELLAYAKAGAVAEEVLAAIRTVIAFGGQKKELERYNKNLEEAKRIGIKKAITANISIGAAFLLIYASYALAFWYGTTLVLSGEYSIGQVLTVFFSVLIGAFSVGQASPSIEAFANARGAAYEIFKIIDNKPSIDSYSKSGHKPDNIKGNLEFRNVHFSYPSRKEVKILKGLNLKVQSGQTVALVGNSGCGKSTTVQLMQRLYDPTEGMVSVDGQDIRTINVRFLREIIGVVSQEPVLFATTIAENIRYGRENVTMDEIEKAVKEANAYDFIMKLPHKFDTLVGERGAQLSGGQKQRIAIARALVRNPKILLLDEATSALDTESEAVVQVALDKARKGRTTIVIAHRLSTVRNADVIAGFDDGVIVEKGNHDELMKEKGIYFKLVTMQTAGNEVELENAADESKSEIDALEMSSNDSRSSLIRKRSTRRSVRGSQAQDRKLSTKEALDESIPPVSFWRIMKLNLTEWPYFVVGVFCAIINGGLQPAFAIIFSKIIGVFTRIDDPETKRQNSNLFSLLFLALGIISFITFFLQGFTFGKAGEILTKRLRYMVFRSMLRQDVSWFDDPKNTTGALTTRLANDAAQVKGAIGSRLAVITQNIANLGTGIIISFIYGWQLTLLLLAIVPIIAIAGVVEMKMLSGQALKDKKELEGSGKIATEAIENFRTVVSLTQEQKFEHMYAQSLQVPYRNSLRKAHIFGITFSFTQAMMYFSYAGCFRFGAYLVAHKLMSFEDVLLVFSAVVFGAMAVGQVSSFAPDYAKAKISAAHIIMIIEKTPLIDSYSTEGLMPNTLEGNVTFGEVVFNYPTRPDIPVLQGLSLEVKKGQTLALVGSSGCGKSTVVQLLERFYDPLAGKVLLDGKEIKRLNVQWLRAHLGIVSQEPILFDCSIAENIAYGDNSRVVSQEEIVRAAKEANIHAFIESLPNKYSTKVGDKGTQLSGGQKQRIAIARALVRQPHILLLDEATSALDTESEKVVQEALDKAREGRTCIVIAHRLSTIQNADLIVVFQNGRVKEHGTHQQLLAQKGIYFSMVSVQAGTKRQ

One data set has as its target T1, P-glycoprotein (P-gp) (Homo sapiens, UniProt P08183).
T1 construct: expressed in transfected cells; host or cells: LLC-GA5-COL300 (pig kidney LLC-PK1 cells expressing human MDR1)
The data set is described as follows: Test for substrate recognition by P-gp (LLC-GA5-COL300 cells). Particulars: 10 μM, Human MDR1-expressing LLC-GA5-COL300 cells, Apical to Basolateral and Basolateral to Apical. It counts as in vitro ADME. From the text:
In the case of drugs that act on the central nervous system, it is generally important for such drugs to be transferred from blood into brain for development of their efficacy. In the blood-brain barrier, there is found P-glycoprotein (P-gp), which is a typical member of the efflux transporters that control drug penetration; and P-gp inhibits the penetration of its substrate drugs into the brain. Thus, in developing a drug, recognition performance as a P-gp substrate can be used as an indicator of brain penetration.
A test for substrate recognition by P-gp was conducted as described in J. Pharmacol. Exp. Ther. (1992) Vol. 263, No. 2, 840-845 and J. Biol. Chem. (1992) Vol. 267, No. 34, 24248-24252. Specifically, LLC-GA5-COL300 cells (i.e., a Human MDR1-expressing system originating from a pig kidney-derived cultured renal epithelial cell line, LLC-PK1) were used after being cultured for 4 days on trans wells, and the medium in each well was replaced by Hank's balanced salt solution (HBSS) immediately before use in the test. After a test compound solution (i.e., a DMSO solution of a test compound, which was further diluted with HBSS and adjusted to a final concentration of 10 μM) was added to the Donor side of the LLC-GA5-COL300 cells, aliquots of HBSS were sampled over time from the Acceptor side to determine the test compound concentration in each collected sample by LC-MS/MS.
The membrane permeability coefficient (×10^−6 cm/sec) was calculated by the accumulated amount of the compound into the Acceptor side for both directions, Apical to Basolateral and Basolateral to Apical. and the ratio of these coefficients (Efflux Ratio) was then used to evaluate substrate recognition by P-gp.
Turning to `CC(C)N(Cc1ccc(F)c(-c2ccc(F)c(F)c2)c1)C(=O)c1cn(C)cn1` [Compound 17], the “recognition as a P-gp substrate (Efflux Ratio criteria)” value is reported as “not to be recognized as a P-gp substrate”.
The same measure, in the same setting: in the case of `CC(C)N(Cc1ccc(F)c(-c2ccc(F)cc2)c1)C(=O)c1cn(C)cn1` [Compound 18] it was “not to be recognized as a P-gp substrate”.
Still for that read-out and setting: in the case of `CC(C)N(Cc1ccc(F)c(-c2cccc(F)c2)c1)C(=O)c1cn(C)cn1` [Compound 20] it was “not to be recognized as a P-gp substrate”; in that of `CC(C)N(Cc1ccc(F)c(-c2ccccc2)c1)C(=O)c1cn(C)cn1` [Compound 22], “not to be recognized as a P-gp substrate”.

Another data set deals with T2, human type 1 glycine transporter (GlyT1) (Homo sapiens, UniProt P48067).
T2 construct: Glioma T98G cells endogenously expressing human type 1 glycine transporter (GlyT1) were used; endogenous in cells; host or cells: T98G human glioma cells
T2 sequence (P48067 1-706): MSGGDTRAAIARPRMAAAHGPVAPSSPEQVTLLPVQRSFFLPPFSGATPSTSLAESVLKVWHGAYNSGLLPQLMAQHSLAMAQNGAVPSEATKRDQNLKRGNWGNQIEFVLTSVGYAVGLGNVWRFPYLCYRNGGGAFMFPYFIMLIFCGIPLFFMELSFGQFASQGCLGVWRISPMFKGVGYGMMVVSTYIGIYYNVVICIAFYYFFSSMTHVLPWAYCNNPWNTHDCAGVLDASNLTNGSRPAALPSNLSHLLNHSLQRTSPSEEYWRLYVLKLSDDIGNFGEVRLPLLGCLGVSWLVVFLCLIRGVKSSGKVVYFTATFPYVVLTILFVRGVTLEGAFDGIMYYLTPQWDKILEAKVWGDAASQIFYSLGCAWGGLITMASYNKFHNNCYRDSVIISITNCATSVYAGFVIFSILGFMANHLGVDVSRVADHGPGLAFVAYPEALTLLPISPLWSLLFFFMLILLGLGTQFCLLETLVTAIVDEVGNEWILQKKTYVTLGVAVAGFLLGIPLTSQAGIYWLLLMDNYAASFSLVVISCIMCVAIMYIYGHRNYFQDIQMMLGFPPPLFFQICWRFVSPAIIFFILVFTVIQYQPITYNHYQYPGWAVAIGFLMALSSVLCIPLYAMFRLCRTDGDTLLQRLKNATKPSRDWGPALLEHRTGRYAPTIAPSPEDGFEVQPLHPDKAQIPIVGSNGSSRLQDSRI
The experiment in a line: Glycine uptake inhibition experiment ([3H]glycine uptake in T98G cells). It is filed as cell-based. Particulars: [3H]glycine 250 nM, 15 min, room temperature, read-out: glycine uptake inhibitory activity (IC50 value). The method, then: A glycine uptake experiment was conducted as described in Neuron, 8, 927-935, 1992. Glioma T98G cells endogenously expressing human type 1 glycine transporter (GlyT1) were used. T98G cells were seeded in a 96-well plate at 2.0×10^4 cells/well and cultured overnight in a CO2 incubator. A test compound was dissolved in a 100% DMSO solution and then dissolved in 10 mM HEPES buffer (pH 7.4) containing 150 mM sodium chloride, 1 mM calcium chloride, 5 mM potassium chloride, 1 mM magnesium chloride, 10 mM glucose and 0.2% bovine serum albumin. After removing the cell culture medium, the cells were pre-treated with the test compound for 10 minutes. Subsequently, the test compound and [^3H]glycine (final concentration: 250 nM) were added to the cells and incubated at room temperature for 15 minutes. After the incubation, the extracellular solution was aspirated with a manifold to remove the excess labeled glycine existing outside the cells, and the cells were then lysed with 0.5 M aqueous sodium hydroxide. The amount of glycine uptake was determined by measuring radioactivity in the cell lysate using a liquid scintillation counter. Glycine uptake in the presence of 10 μM ALX5407 was defined as non-specific uptake, and the value calculated by subtracting this non-specific uptake from the total uptake in the absence of 10 μM ALX5407 was defined as specific uptake. Moreover, an inhibition curve was obtained for each test compound at concentrations of […] to calculate the glycine uptake inhibitory activity (IC50 value) of each test substance.
It should be noted that ALX5407 is a HCl salt of N-[(3R)-3-([1,1′-biphenyl]-4-yloxy)-3-(4-fluorophenyl)propyl]-N-methylglycine.
Regarding `COC(=O)c1cccc(-c2cc(CN(C(=O)c3ncn(C)n3)C3CCCCC3)ccc2F)c1` [Compound 2], the IC50 stood at 12.6 nM.
The same measure, in the same setting: to `Cn1cnc(C(=O)N(Cc2ccc(F)c(-c3cccc(CO)c3)c2)C2CCCCC2)n1` [Compound 6] belongs 14.6 nM; to `CC(C)N(Cc1ccc(F)c(-c2cccc(CO)c2)c1)C(=O)c1cn(C)cn1` [Compound 7], 25.9 nM.
For `Cn1cnc(C(=O)N(Cc2ccc(F)c(-c3cccc(CO)c3)c2)C2CCCCC2)c1` [Compound 8], the IC50 is 11 nM.
`CCC(CC)N(Cc1ccc(F)c(-c2cccc(CO)c2)c1)C(=O)c1cn(C)cn1` [Compound 11]: the half-inhibitory concentration (IC50) was determined as 35.1 nM.
Still for that read-out and setting: in the case of `Cn1cnc(C(=O)N(Cc2ccc(F)c(-c3cccc(CO)c3)c2)C2CCC2)c1` [Compound 13, N-Cyclobutyl-N-{[6-fluoro-3′-(hydroxymethyl)biphenyl-3-yl]methyl}-1-methyl-1H-imidazole-4-carboxamide] it was 4.33 nM; in that of `Cn1cnc(C(=O)N(Cc2ccc(F)c(-c3cccc(CO)c3)c2)C2CCCC2)c1` [Compound 14], 2.78 nM; in that of `CC(C)N(Cc1ccc(F)c(-c2cccc(OC(F)(F)F)c2)c1)C(=O)c1cn(C)cn1` [Compound 15], 21.4 nM.
The same measure, in the same setting: to `COCCN(Cc1ccc(F)c(-c2ccc(OC(F)(F)F)cc2)c1)C(=O)c1cn(C)cn1` [Compound 16] belongs 41.5 nM; to `CC(C)N(Cc1ccc(F)c(-c2ccc(F)c(F)c2)c1)C(=O)c1cn(C)cn1` [Compound 17], 18.8 nM.
`CC(C)N(Cc1ccc(F)c(-c2ccc(F)cc2)c1)C(=O)c1cn(C)cn1` [Compound 18]: the half-inhibitory concentration (IC50) was 8.89 nM.
On to `COc1ccc(-c2cc(CN(C(=O)c3cn(C)cn3)C(C)C)ccc2F)cc1F` [Compound 19], for which the IC50 is 18.6 nM.
The same measure, in the same setting: to `CC(C)N(Cc1ccc(F)c(-c2cccc(F)c2)c1)C(=O)c1cn(C)cn1` [Compound 20] belongs 7.19 nM; to `CCOc1cccc(-c2cc(CN(C(=O)c3cn(C)cn3)C(C)C)ccc2F)c1` [Compound 21], 13.6 nM; to `CC(C)N(Cc1ccc(F)c(-c2ccccc2)c1)C(=O)c1cn(C)cn1` [Compound 22], 11.6 nM.
As for `CC(C)N(Cc1ccc(F)c(-c2ccccc2F)c1)C(=O)c1cn(C)cn1` [Compound 23], the half-maximal inhibitory concentration (IC50) was determined as 21.4 nM.
Same read-out and setting: to `COc1ccc(-c2cc(CN(C(=O)c3cn(C)cn3)C(C)C)ccc2F)cc1` [Compound 25] belongs 25.4 nM; to `CC(C)N(Cc1ccc(F)c(-c2ccc(Cl)cc2)c1)C(=O)c1cn(C)cn1` [Compound 26], 40 nM; to `CC(C)N(Cc1ccc(F)c(-c2cc(F)cc(F)c2)c1)C(=O)c1cn(C)cn1` [Compound 28], 22.6 nM.
As for `Cn1cnc(C(=O)N(Cc2ccc(F)c(-c3ccc(F)c(F)c3)c2)C2CCCC2)c1` [Compound 31], the IC50 amounted to 21 nM.
With `CC(C)N(Cc1ccc(F)c(-c2cccc(OC(F)F)c2)c1)C(=O)c1cn(C)cn1` [Compound 34], the 50% inhibitory concentration (IC50) was found to be 49.4 nM.
On the same count and under the same terms, in the case of `CC(C)N(Cc1ccc(F)c(-c2ccc(OC(F)F)cc2)c1)C(=O)c1cn(C)cn1` [Compound 35] it was 48.9 nM.
Still for that read-out and setting: in the case of `CC(C)N(Cc1ccc(F)c(-c2cc(F)cc(C#N)c2)c1)C(=O)c1cn(C)cn1` [Compound 39] it was 48.5 nM.
For `CCn1cnc(C(=O)N(Cc2ccc(F)c(-c3ccc(OC(F)(F)F)cc3)c2)C(C)C)c1` [Compound 40, 1-Ethyl-N-{[6-fluoro-4′-(trifluoromethoxy)biphenyl-3-yl]methyl}-N-(propan-2-yl)-1H-imidazole-4-carboxamide], the IC50 was 35.9 nM.
Turning to `CCn1cnc(C(=O)N(Cc2ccc(F)c(-c3cc(F)c(F)c(F)c3)c2)C(C)C)c1` [Compound 42], the IC50 worked out at 48.3 nM.
Still for that read-out and setting: to `CC(CO)N(Cc1ccc(F)c(-c2ccc(OC(F)(F)F)cc2)c1)C(=O)c1cn(C)cn1` (stereo not drawn) [Compound 52] belongs 30.7 nM.

Staying with this data set, now noted: [3H]glycine 250 nM, 15 min, room temperature, read-out: glycine uptake inhibitory activity (IC50 value), bounds.
As to `CC(C)N(Cc1ccc(F)c(-c2cccc(OC(F)(F)F)c2)c1)C(=O)c1ncn(C)n1` [Compound 3], the IC50 is not below 100 nM.
Same read-out and setting: to `CC(C)N(Cc1ccc(F)c(-c2ccc(OC(F)(F)F)cc2)c1)C(=O)c1ncn(C)n1` [Compound 4] belongs not below 100 nM; to `CC(C)N(Cc1ccc(F)c(-c2cccc(CO)c2)c1)C(=O)c1ncn(C)n1` [Compound 5], not below 100 nM.
In the case of `CC(C)N(Cc1ccc(F)c(-c2ccc(C(F)(F)F)cc2)c1)C(=O)c1cn(C)cn1` [Compound 30], the half-inhibitory concentration (IC50) was not below 100 nM.
Same read-out and setting: to `CC(C)CN(Cc1ccc(F)c(-c2ccc(F)c(F)c2)c1)C(=O)c1cn(C)cn1` [Compound 32] belongs not below 100 nM; to `CC(C)N(Cc1ccc(F)c(-c2ccc(C#N)cc2F)c1)C(=O)c1cn(C)cn1` [Compound 37], not below 100 nM.
Still for that read-out and setting: in the case of `CC(C)N(Cc1ccc(F)c(-c2cc(F)c(F)c(F)c2)c1)C(=O)c1c[nH]cn1` [Compound 41] it was more than 1000 nM; in that of `COc1ccc(CN(C(=O)c2cn(C)cn2)C(C)C)cc1-c1ccc(F)cc1` [Compound 43], more than 1000 nM.
With `Cc1ccc(CN(C(=O)c2cn(C)cn2)C(C)C)cc1-c1ccc(OC(F)(F)F)cc1` [Compound 46], the IC50 is more than 1000 nM.
Regarding `Cc1ccc(CN(C(=O)c2cn(C)cn2)C(C)C)cc1-c1ccc(F)cc1` [Compound 47], the half-maximal inhibitory concentration (IC50) was more than 1000 nM.
The same measure, in the same setting: to `CC(C)N(Cc1cc(-c2ccc(OC(F)(F)F)cc2)cc(C(F)(F)F)c1)C(=O)c1cn(C)cn1` [Compound 48] belongs more than 1000 nM; to `CC(C)N(Cc1cc(-c2ccc(F)cc2)cc(C(F)(F)F)c1)C(=O)c1cn(C)cn1` [Compound 49], more than 1000 nM; to `CC(C)N(Cc1cc(OC(F)(F)F)cc(-c2ccc(F)cc2)c1)C(=O)c1cn(C)cn1` [Compound 50], more than 1000 nM.
Same read-out and setting: to `CC(C)N(Cc1ccc(Cl)c(-c2ccc(F)cc2)c1)C(=O)c1cn(C)cn1` [Compound 51] belongs not below 100 nM; to `C=C(C)N(Cc1ccc(F)c(-c2ccc(OC(F)(F)F)cc2)c1)C(=O)c1cn(C)cn1` [Compound 53, N-{[6-Fluoro-4′-(trifluoromethoxy)biphenyl-3-yl]methyl}-1-methyl-N-(prop-1-en-2-yl)-1H-imidazole-4-carboxamide], not below 100 nM.

What is called IC50 is the concentration at which inhibition is half-maximal.
